# Read-outs that look alike come from different tables or passages of the source.
# Tested on: HCMV (AD169 strain in HFF cells)
# Test: CPE (cytopathic effect) assay for HCMV
# Assay type: cell-based, Human Cytomegalovirus
# Description: Human foreskin fibroblast (HFF) cells prepared from human foreskin tissue were obtained from the University of Alabama at Birmingham tissue procurement facility with approval from its IRB. The tissue was incubated at 4° C. for 4 h in Clinical Medium consisting of minimum essential media (MEM) with Earl's salts supplemented with 10% fetal bovine serum (FBS) (Hyclone, Inc. Logan UT), L-glutamine, fungizone, and vancomycin. Tissue was then placed in phosphate buffered saline (PBS), minced, rinsed to remove the red blood cells, and resuspended in trypsin/EDTA solution. The tissue suspension was incubated at 37° C. and gently agitated to disperse the cells, which were collected by centrifugation. Cells were resuspended in 4 ml Clinical Medium and placed in a 25 cm^2 flask and incubated at 37° C. in a humidified CO2 incubator for 24 h. The media was then replaced with fresh Clinical Medium and the cell growth was monitored daily until a confluent monolayer had formed. The HFF cells were then expanded through serial passages in standard growth medium of MEM with Earl's salts supplemented with 10% FBS, L-glutamine, penicillin, and gentamycin.
# Akata cells were obtained from Louisiana State University, Baton Rouge, LA. The HCMV strain AD169 was obtained from the American Type Culture Collection (ATCC, Manassas, VA). Akata cells latently infected with EBV were obtained from Louisiana State University, Baton Rouge, LA.
# Each experiment that evaluates the antiviral activity of compounds includes both positive and negative control compounds to ensure the performance of each assay. Concurrent assessment of cytotoxicity was also performed for each study in the same cell line and with the same compound exposure.
# Assays were performed in monolayers as described.37 Cells were seeded in 384 well plates and incubated for 24 h to allow the formation of confluent monolayers. Dilutions of test drug were prepared directly in the plates and the monolayers infected at a predetermined MOI based on virus used. After incubation, cytopathology was determined by the addition of CellTiter-Glo (CTG) reagent. […] Toxicity was measured using CTG as above.
compound,measurement,setting,value
"CC(C)C(=O)OCC1=C[C@@H](O)[C@H](n2ccc(N)nc2=O)O1 [Compound 8, 3′-Deoxy-3′,4′-didehydro-5′-O-isobutyroyl-cytidine]",EC50,"Human betaherpesvirus 5, AD169, HFF, approximate, read-out: EC50 against HCMV",~20 nM
same,EC50,"Human betaherpesvirus 5, AD169 strain in HFF cells, Table 1, read-out: HCMV EC50",20 nM

# Reference: US20240287123A1 (Victoria Link Limited, priority 2021, published 2024)
